Laboratory results: patent US7304174B2, “CaSR antagonist” (Japan Tobacco Inc., priority 2003, dated 2007)
pIC50: −log10 of the molar value.

Each molecule was assayed against T1, human calcium receptor (Homo sapiens, UniProt P41180) (assay: Evaluation of antagonistic action on calcium receptor using reporter gene (luciferase)). Conditions: transformed rat adrenal derived cells, 5 mM calcium chloride, culture 4 hrs, luciferase activity; read-out: Reporter gene assay (IC50, concentration showing 50% inhibitory rate).
T1 construct: expressed in transfected cells; host or cells: cell strain derived from rat adrenal, co-transformed with luciferase cDNA
T1 sequence (P41180 20-1078): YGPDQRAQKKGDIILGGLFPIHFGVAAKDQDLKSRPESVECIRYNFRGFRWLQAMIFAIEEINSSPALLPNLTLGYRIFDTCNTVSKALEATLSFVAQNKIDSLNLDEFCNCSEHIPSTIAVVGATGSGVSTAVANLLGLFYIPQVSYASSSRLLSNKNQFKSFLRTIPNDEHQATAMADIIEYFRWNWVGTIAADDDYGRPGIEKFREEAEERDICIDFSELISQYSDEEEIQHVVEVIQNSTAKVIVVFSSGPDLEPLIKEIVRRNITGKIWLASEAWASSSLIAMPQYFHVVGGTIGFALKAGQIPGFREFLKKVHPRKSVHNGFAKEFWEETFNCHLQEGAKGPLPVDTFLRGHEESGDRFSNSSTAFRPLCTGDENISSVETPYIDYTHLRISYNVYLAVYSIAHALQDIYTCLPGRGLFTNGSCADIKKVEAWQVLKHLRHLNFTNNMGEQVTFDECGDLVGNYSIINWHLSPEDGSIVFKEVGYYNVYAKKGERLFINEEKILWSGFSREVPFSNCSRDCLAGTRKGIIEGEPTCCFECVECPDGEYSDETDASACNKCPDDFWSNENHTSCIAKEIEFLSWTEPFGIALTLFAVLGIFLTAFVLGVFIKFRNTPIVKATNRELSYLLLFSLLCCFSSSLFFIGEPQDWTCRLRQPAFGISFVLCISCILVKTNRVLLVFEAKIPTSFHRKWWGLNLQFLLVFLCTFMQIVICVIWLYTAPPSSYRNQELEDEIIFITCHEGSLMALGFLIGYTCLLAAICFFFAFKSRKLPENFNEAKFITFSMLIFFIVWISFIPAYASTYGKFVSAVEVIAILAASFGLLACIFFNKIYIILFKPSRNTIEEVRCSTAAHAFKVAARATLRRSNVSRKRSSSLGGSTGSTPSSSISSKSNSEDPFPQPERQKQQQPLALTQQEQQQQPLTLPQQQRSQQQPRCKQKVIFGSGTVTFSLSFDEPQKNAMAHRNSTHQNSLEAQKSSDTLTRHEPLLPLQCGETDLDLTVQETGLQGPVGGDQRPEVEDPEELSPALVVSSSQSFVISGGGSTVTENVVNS
Format: cell-based
How it was run: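 Rat adrenal-derived cells transfected with luciferase and human calcium receptor cDNA, in F12 with 0.5% dialyzed horse serum and 0.25% dialyzed fetal bovine serum. Luciferase luminescence gave % inhibition vs control and blank; IC50 at 50% inhibition.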
Cc1cc(-c2ccccc2[C@@H](C)OC[C@H](O)CNC(C)(C)Cc2ccc(Cl)cc2F)ccc1C(=O)O [Example 1-110] was tested, and the pIC50 was 7.59.
COC(=O)c1ccc(Oc2ccccc2C(C)OC[C@H](O)CNC(C)(C)Cc2ccc3ccccc3c2)cc1 (stereo partly drawn) [Example 2-3, methyl 4-[2-[1-[(2R)-3-[[1-(naphthalen-2-yl)-2-methylpropan-2-yl]amino]-2-hydroxypropoxy]ethyl]phenoxy]benzoate] was tested, and the pIC50 was 7.15.
In the case of CC(OC[C@H](O)CNC(C)(C)Cc1ccc2ccccc2c1)c1ccccc1Oc1ccc(C(=O)O)cc1 (stereo partly drawn) [Example 2-4, 4-[2-[1-[(2R)-3-[[1-(naphthalen-2-yl)-2-methylpropan-2-yl]amino]-2-hydroxypropoxy]ethyl]phenoxy]benzoic acid], the pIC50 was 8.00.
Work on CC(OC[C@H](O)CNC(C)(C)Cc1ccc(Cl)cc1F)c1ccccc1Oc1ccc(C(=O)O)cc1 (stereo partly drawn) [Example 2-6, 4-[2-[1-[(2R)-3-[[1-(4-chloro-2-fluorophenyl)-2-methylpropan-2-yl]amino]-2-hydroxypropoxy]ethyl]phenoxy]benzoic acid] yielded a pIC50 of 7.66.
Cc1ccc(CC(C)(C)NC[C@@H](O)COC(C)c2ccccc2Oc2ccc(C(=O)O)cc2)cc1F (stereo partly drawn) [Example 2-7, 4-[2-[1-[(2R)-3-[[1-(3-fluoro-4-methylphenyl)-2-methylpropan-2-yl]amino]-2-hydroxypropoxy]ethyl]phenoxy]benzoic acid] showed a pIC50 of 7.77.
Cc1ccc(CC(C)(C)NC[C@@H](O)COC(C)c2ccccc2Oc2cccc(C(=O)O)c2)cc1F (stereo partly drawn) [Example 2-8, 3-[2-[1-[(2R)-3-[[1-(3-fluoro-4-methylphenyl)-2-methylpropan-2-yl]amino]-2-hydroxypropoxy]ethyl]phenoxy]benzoic acid] gave a pIC50 of 7.27.
CC(OC[C@H](O)CNC(C)(C)Cc1ccc2ccccc2c1)c1ccccc1C=Cc1ccc(C(=O)O)cc1 (stereo partly drawn) [Example 2-9, 4-[2-[2-[1-[(2R)-3-[[1-(naphthalen-2-yl)-2-methylpropan-2-yl]amino]-2-hydroxypropoxy]ethyl]phenyl]vinyl]benzoic acid] was tested, and the pIC50 was 7.80.
CC(OC[C@H](O)CNC(C)(C)Cc1ccc2ccccc2c1)c1ccccc1Sc1cccc(C(=O)O)c1 (stereo partly drawn) [Example 2-10, 3-[2-[1-[(2R)-3-[[1-(naphthalen-2-yl)-2-methylpropan-2-yl]amino]-2-hydroxypropoxy]ethyl]phenylthio]benzoic acid] was tested, and the pIC50 was 7.57.
Work on Cc1ccc(CC(C)(C)NC[C@@H](O)COC(C)c2ccccc2C=Cc2ccc(C(=O)O)cc2)cc1F (stereo partly drawn) [Example 2-11, 4-[2-[2-[1-[(2R)-3-[[1-(3-fluoro-4-methylphenyl)-2-methylpropan-2-yl]amino]-2-hydroxypropoxy]ethyl]phenyl]vinyl]benzoic acid] yielded a pIC50 of 7.68.
Work on Cc1ccc(CC(C)(C)NC[C@@H](O)COC(C)c2ccccc2Oc2c(C)cc(C(=O)O)cc2C)cc1F (stereo partly drawn) [Example 2-12, 4-[2-[1-[(2R)-3-[[1-(3-fluoro-4-methylphenyl)-2-methylpropan-2-yl]amino]-2-hydroxypropoxy]ethyl]phenoxy]-3,5-dimethylbenzoic acid] yielded a pIC50 of 8.30.
Cc1cc(C(=O)O)cc(C)c1Oc1ccccc1C(C)OC[C@H](O)CNC(C)(C)Cc1ccc(Cl)cc1F (stereo partly drawn) [Example 2-13, 4-[2-[1-[(2R)-3-[[1-(4-chloro-2-fluorophenyl)-2-methylpropan-2-yl]amino]-2-hydroxypropoxy]ethyl]phenoxy]-3,5-dimethylbenzoic acid] showed a pIC50 of 7.66.
C[C@@H](OC[C@H](O)CNC(C)(C)Cc1ccc2ccccc2c1)c1ccccc1Cc1ccc(C(=O)O)cc1 [Example 2-14, 4-[2-[1-[(2R)-3-[[1-(naphthalen-2-yl)-2-methylpropan-2-yl]amino]-2-hydroxypropoxy]ethyl]benzyl]benzoic acid] was tested, and the pIC50 was 7.28.
Molecule C[C@@H](OC[C@H](O)CNC(C)(C)Cc1ccc2ccccc2c1)c1ccccc1Cc1cccc(C(=O)O)c1 [Example 2-15, 3-[2-[1-[(2R)-3-[[1-(naphthalen-2-yl)-2-methylpropan-2-yl]amino]-2-hydroxypropoxy]ethyl]benzyl]benzoic acid] has a pIC50 of 7.80.
Molecule CC(OC[C@H](O)CNC(C)(C)Cc1ccc2ccccc2c1)c1ccccc1Sc1ccc(C(=O)O)cc1 (stereo partly drawn) [Example 2-16, 4-[2-[1-[(2R)-3-[[1-(naphthalen-2-yl)-2-methylpropan-2-yl]amino]-2-hydroxypropoxy]ethyl]phenylthio]benzoic acid] has a pIC50 of 7.85.
In the case of CC(OC[C@H](O)CNC(C)(C)Cc1ccc2ccccc2c1)c1ccccc1[S+]([O-])c1ccc(C(=O)O)cc1 (stereo partly drawn) [Example 2-17, 4-[2-[1-[(2R)-3-[[1-(naphthalen-2-yl)-2-methylpropan-2-yl]amino]-2-hydroxypropoxy]ethyl]phenylsulfinyl]benzoic acid], the pIC50 was 6.83.
CC(OC[C@H](O)CNC(C)(C)Cc1ccc2ccccc2c1)c1ccccc1S(=O)(=O)c1ccc(C(=O)O)cc1 (stereo partly drawn) [Example 2-18, 4-[2-[1-[(2R)-3-[[1-(naphthalen-2-yl)-2-methylpropan-2-yl]amino]-2-hydroxypropoxy]ethyl]phenylsulfonyl]benzoic acid] gave a pIC50 of 6.63.
In the case of CC(OC[C@H](O)CNC(C)(C)Cc1ccc2ccccc2c1)c1ccccc1NCc1ccc(C(=O)O)cc1 (stereo partly drawn) [Example 2-19, 4-[[2-[1-[(2R)-3-[[1-(naphthalen-2-yl)-2-methylpropan-2-yl]amino]-2-hydroxypropoxy]ethyl]phenylamino]methyl]benzoic acid], the pIC50 was 7.54.
In the case of CC(OC[C@H](O)CNC(C)(C)Cc1ccc2ccccc2c1)c1ccccc1OCc1ccccc1C(=O)O (stereo partly drawn) [Example 2-20, 2-[[2-[1-[(2R)-3-[[1-(naphthalen-2-yl)-2-methylpropan-2-yl]amino]-2-hydroxypropoxy]ethyl]phenoxy]methyl]benzoic acid], the pIC50 was 7.70.
CC(OC[C@H](O)CNC(C)(C)Cc1ccc2ccccc2c1)c1ccccc1OCc1cccc(C(=O)O)c1 (stereo partly drawn) [Example 2-21, 3-[[2-[1-[(2R)-3-[[1-(naphthalen-2-yl)-2-methylpropan-2-yl]amino]-2-hydroxypropoxy]ethyl]phenoxy]methyl]benzoic acid] gave a pIC50 of 7.77.
Work on C[C@@H](OC[C@H](O)CNC(C)(C)Cc1ccc2ccccc2c1)c1ccccc1OCc1ccc(C(=O)O)cc1 [Example 2-22, 4-[[2-[1-[(2R)-3-[[1-(naphthalen-2-yl)-2-methylpropan-2-yl]amino]-2-hydroxypropoxy]ethyl]phenoxy]methyl]benzoic acid] yielded a pIC50 of 7.77.
Work on Cc1ccc(CC(C)(C)NC[C@@H](O)CO[C@H](C)c2ccccc2OCc2cccc(C(=O)O)c2)cc1F [Example 2-23, 3-[[2-[1-[(2R)-3-[[1-(3-fluoro-4-methylphenyl)-2-methylpropan-2-yl]amino]-2-hydroxypropoxy]ethyl]phenoxy]methyl]benzoic acid] yielded a pIC50 of 7.57.
Work on Cc1ccc(CC(C)(C)NC[C@@H](O)CO[C@H](C)c2ccccc2OCc2ccc(C(=O)O)cc2)cc1F [Example 2-24, 4-[[2-[1-[(2R)-3-[[1-(3-fluoro-4-methylphenyl)-2-methylpropan-2-yl]amino]-2-hydroxypropoxy]ethyl]phenoxy]methyl]benzoic acid] yielded a pIC50 of 7.24.
Cc1ccc(CC(C)(C)NC[C@@H](O)CO[C@H](C)c2ccccc2OCc2ccc(C(=O)O)cc2F)cc1F [Example 2-25, 3-fluoro-4-[[2-[1-[(2R)-3-[[1-(3-fluoro-4-methylphenyl)-2-methylpropan-2-yl]amino]-2-hydroxypropoxy]ethyl]phenoxy]methyl]benzoic acid] showed a pIC50 of 7.19.
Cc1ccc(CC(C)(C)NC[C@@H](O)CO[C@H](C)c2ccccc2OCc2ccc(C(=O)O)cc2C)cc1F [Example 2-26, 4-[[2-[1-[(2R)-3-[[1-(3-fluoro-4-methylphenyl)-2-methylpropan-2-yl]amino]-2-hydroxypropoxy]ethyl]phenoxy]methyl]-3-methylbenzoic acid] gave a pIC50 of 7.62.
COc1cc(C(=O)O)cc(OC)c1Oc1ccccc1C(C)OC[C@H](O)CNC(C)(C)Cc1ccc(C)c(F)c1 (stereo partly drawn) [Example 2-27, 4-[2-[1-[(2R)-3-[[1-(3-fluoro-4-methylphenyl)-2-methylpropan-2-yl]amino]-2-hydroxypropoxy]ethyl]phenoxy]-3,5-dimethoxybenzoic acid] was tested, and the pIC50 was 7.57.
In the case of Cc1ccc(CC(C)(C)NC[C@@H](O)CO[C@H](C)c2ccccc2Oc2ccc(C(=O)O)cc2[N+](=O)[O-])cc1F [Example 2-28, 4-[2-[1-[(2R)-3-[[1-(3-fluoro-4-methylphenyl)-2-methylpropan-2-yl]amino]-2-hydroxypropoxy]ethyl]phenoxy]-3-nitrobenzoic acid], the pIC50 was 8.52.
